Where “and” joins values, the source holds several entries; their conditions need not be identical. Identical values can stand only once.
Columns and labels:
[1] = target: T1, Genome polyprotein (dengue virus type 2, UniProt P29990); format: functional, Thailand/16681/1984
[2] = target: T1, Genome polyprotein; format: functional, Thailand/16681/1984; remark: listed apart in the source

T1 sequence (P29990 1346-1475 limits assumed): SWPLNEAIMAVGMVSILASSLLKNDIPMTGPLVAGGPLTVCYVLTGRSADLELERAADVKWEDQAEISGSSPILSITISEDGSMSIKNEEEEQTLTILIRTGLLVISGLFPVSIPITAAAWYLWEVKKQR
T1 sequence (P29990 1476-2093 limits assumed): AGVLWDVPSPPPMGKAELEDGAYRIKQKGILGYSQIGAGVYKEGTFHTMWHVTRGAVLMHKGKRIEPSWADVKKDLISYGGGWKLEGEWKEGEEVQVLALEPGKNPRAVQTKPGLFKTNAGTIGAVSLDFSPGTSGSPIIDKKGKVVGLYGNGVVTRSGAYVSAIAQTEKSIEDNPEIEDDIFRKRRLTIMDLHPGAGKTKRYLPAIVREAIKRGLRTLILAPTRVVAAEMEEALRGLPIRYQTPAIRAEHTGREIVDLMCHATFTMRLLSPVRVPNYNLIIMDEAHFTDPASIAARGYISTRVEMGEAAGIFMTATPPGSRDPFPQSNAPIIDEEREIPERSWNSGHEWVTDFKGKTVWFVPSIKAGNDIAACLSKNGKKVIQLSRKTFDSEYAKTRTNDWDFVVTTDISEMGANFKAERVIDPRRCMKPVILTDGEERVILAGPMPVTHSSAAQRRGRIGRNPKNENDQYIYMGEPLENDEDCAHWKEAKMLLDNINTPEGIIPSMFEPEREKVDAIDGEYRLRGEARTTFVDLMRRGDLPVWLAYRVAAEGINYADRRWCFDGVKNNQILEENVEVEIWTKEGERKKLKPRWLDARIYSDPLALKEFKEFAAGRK

Structure (SMILES)	IC50 [1]	IC50 [2]
Cc1c(C(=O)Nc2cccc(-n3nn[nH]c3=O)c2)cc(C2CC2)n1C	> 99.5 µM	> 100 µM
NCc1cccc(N[C@H](C#CCO)c2cc(Cl)cc(NC(=O)OCc3ccccc3)c2)c1	93.8 µM	> 100 µM
N#Cc1ccc(CN)cc1NC(=O)c1cc(Cl)cc(NC(=O)OCc2ccccc2)c1	> 99.5 µM	> 100 µM
COc1c(C(=O)N(C)C)cc(Cl)cc1S(=O)(=O)Nc1cccc(-c2nnn[nH]2)c1	> 99.5 µM	> 100 µM
CC[C@H](Cc1nnn[nH]1)c1ccc(NC(=O)c2cc(Cl)cc(SC)c2)cc1	67.2 µM	40.6 µM
O=C(Nc1cccc(-c2nnn[nH]2)c1)c1cc(Cl)cc2[nH]ncc12	> 99.5 µM	> 100 µM
CCn1c(=O)c(N2CC[C@H](CO)C2)nc2ccc(C(=O)NS(C)(=O)=O)cc21	> 99.5 µM	> 100 µM
NCc1ccc2c(c1)[C@H]1OCCC[C@H]1[C@H](c1cc(Cl)cc(NC(=O)OCc3ccccc3)c1)N2	17.6 µM and 15.9 µM	33.9 µM and 45.8 µM
CC[C@H](Cc1nnn[nH]1)c1ccc(NC(=O)c2cc(Cl)cc(-n3cccc3)c2)cc1	26.4 µM	14.7 µM and 20.9 µM
O=S(=O)(Nc1cccc(-c2nnn[nH]2)c1)c1cc(Cl)cc(-c2ccccc2)c1	35.8 µM	16.4 µM and 28.4 µM
N#Cc1cc(Cl)cc(S(=O)(=O)Nc2cccc(-c3nnn[nH]3)c2)c1	> 99.5 µM	> 100 µM
Nc1cccc(NC(=O)c2cc(Cl)cc(NC(=O)OCc3ccccc3)c2)c1	> 99.5 µM	> 100 µM
CC(C)c1nc2c(C(=O)Nc3cccc(-c4nnn[nH]4)c3)cccc2[nH]1	> 99.5 µM	> 100 µM
COC(=O)c1cc(Cl)cc([C@@H]2CN(Cc3ccccc3)C[C@H]2c2cccc(CN)c2)c1	> 99.5 µM	> 100 µM
O=S(=O)(Nc1cccc(-c2nnn[nH]2)c1)c1cc(Cl)cc2c1OCC2	> 99.5 µM	> 100 µM
Cn1nnnc1-c1cccc(NC(=O)c2cc(Cl)cc(NC(=O)OCc3ccccc3)c2)c1	> 99.5 µM	> 100 µM
O=C1Cc2cc(NC(=O)c3cc(Cl)cc(NC(=O)OCc4ccccc4)c3)ccc2N1	> 99.5 µM	> 100 µM
Nc1nc2ccc(NC(=O)c3cc(Cl)cc(NC(=O)OCc4ccccc4)c3)cc2[nH]1	> 99.5 µM	> 100 µM
CCNC(=O)Nc1cc(Cl)cc(C(=O)Nc2ccc([C@H](CC)Cc3nnn[nH]3)cc2)c1	> 99.5 µM	> 100 µM

Structure (SMILES)	IC50 [1]	IC50 [2]
CNC(=O)[C@H](Nc1cccc(N)n1)c1cc(Cl)cc(CNC(=O)OC(C)(C)C)c1	> 99.5 µM	> 100 µM
O=C(Nc1cc(Cl)cc(C(=O)Nc2cc(Br)cc(-c3nnn[nH]3)c2)c1)OCc1ccccc1	5.85 µM	4.76 µM and 6.21 µM
Cc1onc(C(=O)Nc2cccc(CN)c2)c1CN1CCCC1	> 99.5 µM	> 100 µM
COC(=O)c1cc(NC(=O)c2cc(Cl)cc(NC(=O)OCc3ccccc3)c2)cc(-c2nnn[nH]2)c1	6.17 µM	5.42 µM and 6.24 µM
N#Cc1cc(CN)cc(NC(=O)c2cc(Cl)cc(NC(=O)OCc3ccccc3)c2)c1	> 99.5 µM	> 100 µM
O=S(=O)(Nc1cccc(-c2nnn[nH]2)c1)c1cc(Cl)cc(C(F)(F)F)c1	> 99.5 µM	> 100 µM
CCNC(=O)Nc1cc(Cl)cc(C(=O)Nc2ccc3c(c2)CNCCO3)c1	> 99.5 µM	> 100 µM
CC[C@H](Cc1nn[nH]n1)c1ccc(N[C@H](C(=O)NC)c2cc(Cl)cc(NC(=O)OCc3ccccc3)c2)cc1	29.2 µM	15.4 µM and 25.1 µM
C=CC[C@H](Nc1cccc(CN)n1)c1cc(Cl)cc(NC(=O)OCc2ccccc2)c1	> 99.5 µM	> 100 µM
O=C(Nc1cc(Cl)cc(C(=O)NC2(c3nn[nH]n3)CCCC2)c1)OCc1ccccc1	> 99.5 µM	> 100 µM
CC[C@H](Cc1nnn[nH]1)c1ccc(NC(=O)c2cc(Cl)cc(C#N)c2)cc1	> 99.5 µM	> 100 µM
Cc1c(C(=O)Nc2cccc([C@@H](C)N)c2)cc(C2CC2)n1C	> 99.5 µM	> 100 µM
O=C(Nc1cc(Cl)cc([C@H]2C[C@@H]2c2ccc3c(c2)CNC3)c1)OCc1ccccc1	> 99.5 µM	> 100 µM
CC[C@H](Cc1nnn[nH]1)c1ccc(NC(=O)[C@H]2[C@H]3CCCCC[C@H]3[C@H]2NC(=O)OCc2ccccc2)cc1	22.9 µM	13 µM and 16.4 µM
O=C(Nc1cccc(-n2nn[nH]c2=O)c1)c1cc(Cl)cc2c1CCC2	> 99.5 µM	> 100 µM
CCNC(=O)Nc1cc(Cl)cc(C(=O)Nc2cc(CCCN)ccc2F)c1	> 99.5 µM	> 100 µM
O=C(Nc1cccc(-c2nnn[nH]2)c1)c1cc(Cl)cc(C2CC2)c1	82.9 µM	39.7 µM and 43.5 µM
CCNC(=O)Nc1cc(Cl)cc(C(=O)Nc2cccc(-c3nn[nH]n3)c2)c1	> 99.5 µM	> 100 µM
CCc1cc(C(=O)Nc2cccc(-n3nn[nH]c3=O)c2)sc1-c1ccc(Cl)cc1	11.3 µM and 12.9 µM	10.5 µM and 12.2 µM

Structure (SMILES)	IC50 [1]	IC50 [2]
Cc1c(C(=O)Nc2cc(CCCN)ccn2)cc(C2CC2)n1C	74.6 µM and 35.9 µM	> 100 µM
COC(=O)c1cc(CN)cc([C@@H]2C[C@H]2c2cc(Cl)cc(NC(=O)OCc3ccccc3)c2)c1	> 99.5 µM	> 100 µM
Cc1ccc(-c2nnn[nH]2)cc1NC(=O)c1cc(Cl)cc(NC(=O)OCc2ccccc2)c1	18.4 µM	9.21 µM and 13.1 µM
CCNC(=O)Nc1cc(Cl)cc(C(=O)Nc2cccc(-n3nn[nH]c3=O)c2)c1	> 99.5 µM	> 100 µM
O=C(Nc1cc(Cl)cc(C(=O)N[C@H](c2nn[nH]n2)C2CNC2)c1)OCc1ccccc1	> 99.5 µM	> 100 µM
O=C(Nc1cc(Cl)cc(/C=C/c2cccc(-n3nn[nH]c3=O)c2)c1)OCc1ccccc1	8.63 µM and 8.5 µM	11.5 µM and 8.65 µM
O=C(Nc1cc(Cl)cc(S(=O)(=O)Nc2cccc(-n3nn[nH]c3=O)c2)c1)OCc1ccccc1	34.3 µM	16.1 µM and 14.1 µM
O=S(=O)(Nc1cccc(-c2nnn[nH]2)c1)c1cc(F)cc(Cl)c1	> 99.5 µM	> 100 µM
CNC(=O)[C@H](Nc1cc(Cl)cc(NC(=O)OCc2ccccc2)c1)c1cccc(CN)c1	> 99.5 µM	> 100 µM
N#C[C@H](Nc1cccc(C(=O)O)c1)c1cc(Cl)cc2[nH]ncc12	> 99.5 µM	> 100 µM
CCOC(=O)c1[nH]c(C)c(C(=O)Nc2cccc(CN)c2)c1CC	> 99.5 µM	> 100 µM
Cc1c(C(=O)Nc2ccc3c(c2)CNCCO3)cc(C2CC2)n1C	> 99.5 µM	> 100 µM
O=C(Nc1cc(Cl)cc(C(=O)Nc2ccc3c(c2)C(=O)NC3)c1)OCc1ccccc1	> 99.5 µM	> 100 µM
N[C@H]1CCc2cc(NC(=O)c3cc(Cl)cc(NC(=O)OCc4ccccc4)c3)ccc21	44.7 µM	> 100 µM
O=C(N[C@H]1[C@H]2CCCCC[C@H]2[C@H]1C(=O)Nc1cccc(-n2nn[nH]c2=O)c1)OCc1ccccc1	27.1 µM	37.9 µM and 54.6 µM
O=C(Nc1cc(Cl)cc(C(=O)Nc2ccc3c(c2)CNC3=O)c1)OCc1ccccc1	> 99.5 µM	> 100 µM
NCc1ccc2c(c1)[C@H](N1CCCC1=O)C[C@H](c1cc(Cl)cc(NC(=O)OCc3ccccc3)c1)N2	> 99.5 µM	75.5 µM
Cc1c(C(=O)Nc2n[nH]c3c2CNC3)cc(C2CC2)n1C	> 99.5 µM	> 100 µM
CCNC(=O)Nc1cc(Cl)cc(C(=O)O)c1	> 99.5 µM	> 100 µM

Source: ChEMBL document CHEMBL5604063, “ASAP - DENV-2 NS2B-NS3 protease fluorescence dose response” (2024)
